Results: patent US9474759B2 (priority 2011, dated 2016)
Read-outs that look alike come from different tables or passages of the source.

How the values were obtained:
[1] = target: PV 3Cpro (codon-optimized, N-terminal 6 His, recombinant) (Poliovirus type 1, UniProt P03300); assay: biochemical; parameters: species or system poliovirus (poliomyelitis virus)
[2] = PK and oral bioavailability studies in rats; settings: 20 mg/Kg (body weight), IV or PO
HAV [3] = assay: Cell culture system, HAV replication in FRhK-4 cells (Example 3); type: cell-based, hepatitis A virus
FCV = assay: Cell-based screening, FCV in CRFK cells (Example 2); settings: Feline calicivirus; CRFK cells; read-out: Inhibition [ED50 (μM)] against various viruses: Calicivirus, FCV
Procedure: (§1) 3. Cell-based screening of inhibitor. The effects of each inhibitor on the viral replication were examined. The list of viruses and corresponding cell lines are listed above in Table 2. Briefly, confluent cells were inoculated with virus at a MOI of 5 or 0.05 for 1 hr, and medium was replaced with medium containing mock-medium or each compound (up to 100 μM). The virus infected cells were further incubated for up to 96 hrs, and the replication of virus was measured by TCID50 assay with the 10-fold dilution of each sample used for virus titration (Reed and Muench, 1938). In some viruses, the virus protein and genome expression levels were detected by Western blot analysis and real-time qRT-PCR, respectively, as described below. The IC50s of the compounds were calculated.

[4] = target: SARS-CoV 3CLpro (codon-optimized, N-terminal 6 His, recombinant) (Severe acute respiratory syndrome coronavirus, UniProt P0C6X7); assay: biochemical
[5] = target: MNV-1 3CLpro (codon-optimized, full-length, recombinant) (Norovirus, UniProt Q80J95); assay: biochemical; parameters: species or system murine norovirus-1 (GV)
Sequence of MNV-1 3CLpro (codon-optimized, full-length, recombinant) (Q80J95 995-1177): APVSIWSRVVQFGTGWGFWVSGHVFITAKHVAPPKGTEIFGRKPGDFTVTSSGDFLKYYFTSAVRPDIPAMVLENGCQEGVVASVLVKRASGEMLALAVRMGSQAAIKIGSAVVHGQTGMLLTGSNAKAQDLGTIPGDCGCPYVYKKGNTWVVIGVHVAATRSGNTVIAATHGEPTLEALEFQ

HAV [6] = assay: Cell-based screening, HAV (Example 2); parameters: species or system hepatitis A virus; settings: Picornaviridae; read-out: Inhibition [ED50 (μM)] against various viruses: Picornavirus, HAV
Procedure: as §1

[7] = test system: murine norovirus-1 (MNV-1); assay: MNV-1 replication in RAW267.4 cells, TCID50 (Example 1); type: cell-based; settings: Norwalk virus, MOI 2, TCID50 assay, read-out: ED50, replication of murine norovirus (MNV)
FIPV-1146 = FIPV-1146 replication in CRFK cells, TCID50 method; type: cell-based, feline coronavirus; settings: Alphacoronavirus 1, MOI 0.05, mean ± SEM
Procedure: Crandell Rees feline kidney (CRFK) cells were maintained in minimal essential medium containing 2-5% fetal bovine serum and antibiotics (chlortetracycline [25 μg/ml], penicillin [250 U/ml], and streptomycin [250 μg/ml]). FIPV WSU 79-1146 and FECV WSU 79-1683 strains are the prototypes of serotype II FIPV or FECV, respectively, and were purchased from ATCC (Manassas, Va.).
The cells were further incubated in the presence of each compound for 1 hr at 37° C. Then […] or FECV-1683 was inoculated to the cells at a multiplicity of infection (MOI) of 0.05 or 5.
b. TCID50 Method. A standard TCID50 method with the 10-fold dilution of each sample was used for virus titration.

[8] = target: Norwalk virus 3CL protease (Norovirus, UniProt Q83883); assay: Recombinant NV protease fluorogenic substrate inhibition assay (Example 1); type: biochemical; settings: 30 min pre-incubation, 30° C., pH 8.0
Sequence of Norwalk virus 3CL protease (Q83883 1101-1281): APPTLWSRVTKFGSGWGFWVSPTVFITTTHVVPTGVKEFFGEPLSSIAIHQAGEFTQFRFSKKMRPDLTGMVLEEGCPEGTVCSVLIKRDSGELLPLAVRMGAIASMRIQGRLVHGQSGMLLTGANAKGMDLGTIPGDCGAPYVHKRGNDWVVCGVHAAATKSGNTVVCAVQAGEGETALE
Procedure: After a 30 minute incubation period, 5 μL of 12 μM Edans-[…]-Dabcyl (SEQ ID NO:1) substrate in DMSO was then added and the increase in fluorescence was monitored for 30 minutes at an excitation and emission wavelength of 360 and 460 nm, respectively. Using a HORIBA FluoroMax 4 spectrofluorometer. Hydrolysis curves were linear. The final enzyme and substrate concentrations were 2.5 μM and 300 nM, respectively. […] Furthermore, the nature of the cap was also important (compare, for example, inhibitors A and D).

Teschovirus = assay: organism not typed; type: cell-based, porcine teschovirus; settings: read-out: Inhibition [ED50 (μM)] against various viruses: Picornavirus, Teschovirus
TGEV = assay: Cell-based screening, TGEV in ST cells (Example 2); parameters: species or system transmissible gastroenteritis virus; settings: Alphacoronavirus 1; ST cells; read-out: Inhibition [ED50 (μM)] against various viruses: Coronavirus, TGEV
Procedure: as §1

TGEV 3CL protease = TGEV 3CL protease (Porcine transmissible gastroenteritis coronavirus, UniProt P0C6Y5); assay: FRET-based protease assay, TGEV 3CL protease (Example 5); type: biochemical, TGEV Miller strain
Sequence of TGEV 3CL protease (P0C6Y5 2879-3180): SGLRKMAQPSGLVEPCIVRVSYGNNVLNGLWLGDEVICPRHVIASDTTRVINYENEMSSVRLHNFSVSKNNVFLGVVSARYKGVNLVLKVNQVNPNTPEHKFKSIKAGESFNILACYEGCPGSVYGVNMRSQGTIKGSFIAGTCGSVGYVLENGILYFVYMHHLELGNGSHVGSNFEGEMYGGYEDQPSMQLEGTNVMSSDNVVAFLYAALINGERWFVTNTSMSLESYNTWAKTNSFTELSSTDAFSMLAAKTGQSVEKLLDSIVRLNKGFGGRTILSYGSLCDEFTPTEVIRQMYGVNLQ
From the text: The 3CL proteases are highly conserved among all coronaviruses, and feline coronavirus 3CL protease is closely related TGEV 3CL protease. Therefore we cloned and expressed the TGEV 3CL protease for the FRET assay. The cDNA encoding the full length of 3CL protease of TGEV Miller strain was amplified with RT-PCR as previously described. The primers contained the nucleotide sequence of the 3CL protease for cloning as well as the nucleotides for 6 Histidine in the forward primer. The amplified product was subcloned to pET-28a(+) vector (GenScript, Piscataway, N.J.). The expression and purification of the 3CL protease was performed with a standard method described previously by our lab (Chang et al., 2012b; Takahashi et al., 2012; Tiew et al., 2011).
Our protease inhibitor compounds and commercial cathepsin inhibitors CA074-Me and E64d were prepared in DMSO as stock solutions (10 mM), and further diluted in assay buffer consisting of 20 mM HEPES, 0.4 mM EDTA, 30% glycerol, 120 mM NaCl, and 4 mM DTT at pH 6. […] TGEV 3CL protease at a final concentration of 0.1˜0.2 μM and the substrate (Dabcyl-[…]-Edans; SEQ ID NO:2) at 10 μM were used for the studies. The substrate was purchased from Bachem Americas, Inc (Torrance, Calif.). Compounds at various concentrations (0˜50 μM) were pre-incubated with TGEV 3CL protease in 25 μl for 30 min at 37° C., and the same volume of substrate was added to a 96-well black plate. The mixtures were then incubated at 37° C. for 60 min, and fluorescence readings were obtained on a microplate reader at 360 nm excitation and 480 nm emission wavelengths. The relative fluorescence units (RFU) were calculated by subtracting background (substrate control well without protease) from the fluorescence readings. The dose-dependent FRET inhibition curves were fitted with variable slope (four parameters) using GraphPad Prism software (La Jolla, Calif.) in order to determine the compound concentration that gives a half-maximum response (IC50).

[9] = target: MD145 3CLpro (codon-optimized, full-length, N-terminal 6 His, recombinant) (Lordsdale virus, UniProt P54634); assay: biochemical; parameters: species or system norovirus strain MD145 (human norovirus GII)
Sequence of MD145 3CLpro (codon-optimized, full-length, N-terminal 6 His, recombinant) (P54634 1009-1189): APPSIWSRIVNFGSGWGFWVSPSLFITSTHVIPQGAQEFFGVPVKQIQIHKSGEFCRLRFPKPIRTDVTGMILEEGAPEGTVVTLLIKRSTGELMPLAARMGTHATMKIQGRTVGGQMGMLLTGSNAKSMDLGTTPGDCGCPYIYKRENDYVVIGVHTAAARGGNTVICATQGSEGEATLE

Sequence of PV 3Cpro (codon-optimized, N-terminal 6 His, recombinant) (P03300 1566-1748 limits assumed): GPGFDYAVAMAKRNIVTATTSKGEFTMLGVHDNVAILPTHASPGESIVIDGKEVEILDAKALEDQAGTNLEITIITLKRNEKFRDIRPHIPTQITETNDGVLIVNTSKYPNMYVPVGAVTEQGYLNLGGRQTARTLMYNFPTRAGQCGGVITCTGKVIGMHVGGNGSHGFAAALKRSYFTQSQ

## CC(C)C[C@H](NC(=O)OCc1ccccc1)C(=O)N[C@H](C=O)C[C@@H]1CCNC1=O [GC373]
[1]
  IC50: 2.02 ± 1.56 µM
[2]
  oral bioavailability, % F: 3 % F
HAV [3]
  effectiveness against the replication of HAV in cells (in words): no or weak effectiveness
FCV
  EC50: 65 µM
[4]
  IC50: 3.48 ± 1.59 µM
[5]
  IC50: 1.34 µM
HAV [6]
  EC50: > 100 µM
[7]
  EC50: 5.5 µM
FIPV-1146; 24 hr post infection, read-out: Inhibition [ED50 (μM)] against FIPV-1146, 24 hrs
  EC50: 0.07 ± 0.04 µM
FIPV-1146; 48 hr post infection, read-out: Inhibition [ED50 (μM)] against FIPV-1146, 48 hrs
  EC50: 0.43 ± 0.35 µM
[8]
  inhibitory activity against Norwalk virus 3CL protease (in words): dose-dependent inhibition
Teschovirus
  EC50: 0.15 µM
TGEV
  EC50: 0.3 µM
TGEV 3CL protease; TGEV 3CL protease, read-out: IC50 against 3CL protease in the FRET assay
  IC50: 0.98 µM
TGEV 3CL protease; compound at 50 μM final concentration
  inhibition of the activity of TGEV 3CL protease (in words): remarkably inhibited
[9]
  IC50: 1.18 µM
